# Laboratory results reported in patent publication US7763708B2, “Methods and compositions for modulating C5-a-mediated inflammatory responses” (Institute for Protein Science Co., Ltd., priority 2004, dated 2010).
# Entries after “also recorded” stand apart in the source; their conditions may differ. Ends that are not written are not given here.
# Key:
# [1] = test system: Rat Lethal Shock Model (C5a-mediated); test: Rat lethal shock induced by anti-Crry antibody following LPS priming; assay type: in vivo
# Protocol: Administration of anti-rat Crry mAb (5I2) (Takizawa et al., J. Immunol. 152:3032, 1994) induces lethal shock in rats primed with a trace amount of lipopolysaccharide (LPS) (Matsuo et al., J. Exp. Med. 180:1619, 1994; Mizuno et al., J. Immunol. 162:5477, 1999). With this model, all rats sensitized with 0.05 mg/kg of LPS died within 30 min of injection of mAb 512. Male Wistar rats weighing about 250 g were purchased from Chubu Kagaku Shizai (Nagoya, Japan) and were allowed free access to food and water. Each rat was injected with 0.05 mg/kg of LPS, prepared from a phenol extraction of Salmonella typhosa (Sigma Chemical Co., St. Louis, Mo.) in 250 μl saline. Then, 0.75 mg/kg of 5I2 was administered 20 h later. Ten minutes before the injection of 5I2, saline or C-peptides in saline were injected. All injections were intravenously administered through the tail vein. Animal experiments were carried out according to Nagoya City University Guideline for the Care and Use of Experimental Animals and approved by the Nagoya City University Graduate School of Medical Sciences Animal Care Committee.
# Administration of 0.75 mg/kg anti-rat Crry monoclonal antibody (Takizawa et al., J. Immunol. 152:3032, 1994) induces rapid lethal shock in rats primed with 0.05 mg/kg of LPS 20 h earlier (Matsuo et al., J. Exp. Med. 180:1619, 1994; Mizuno et al., J. Immunol. 162:5477, 1999). […] In order to investigate the inhibitory effect of the C-peptides in this model, we injected rats with saline (for the control) or C-peptides in 250 μl of saline 10 min before the 5I2 injection. All rats injected with saline died within 30 min (Table 1). However, all rats injected with 4 mg/kg of Pep-A survived. […] Some of the surviving rats stopped breathing briefly in the first 1 or 2 min after injection of 5I2, but were soon breathing again and about 20-40 min later began moving.
# [2] = test system: TGW human neuroblastoma cells bearing C5aR; test: Patch clamp measurement of inward ion current pulses induced by PL37-MAP; assay type: cell-based; conditions: 500 nM PL37-MAP
# Protocol: The measurements were carried out on TGW human neuroblastoma cells bearing C5aR. Cells were voltage-clamped at room temperature at a holding potential of −70 mV using a whole cell clamp configuration. The instruments used for electrophysiology were as follows: an Axopatch 200-A patch clamp amplifier, a Digidata-1200 data acquisition system and pCLAMP 6.02 software from Axon Instruments Inc., (Foster City, Calif.). The head stage of the amplifier was fitted to an MHW-3 hydraulic manipulator manufactured by Narishige Inc. (Tokyo, Japan); and the cells were visualized using an Olympus IMT-2 invert microscope. Data acquisition and analysis were performed using an IBM compatible personal computer. Patch electrodes (OD=1.5 mm, thin wall, Garner Glass Co., Claremont, Calif.) were pulled with a PP-83 puller and polished with an MF-83 microforge (Narishige Inc). The resistance of patch electrodes was 8-10 MΩ. The solutions used were as follows: an extracellular solution (10 mM Hepes, 140 mM NaCl, 5 mM KCI, 2 mM CaCl2, 2 mM MgCl2, 10 mM glucose, pH=7.34) and an intracellular pipette solution (10 mM Hepes, 110 mM KCl, 15 mM NaCl, 0.1 mM CaCl2, 2 mM MgCl2, 1 mM EGTA, pH 7.25). […]
# Inward calcium current pulses detected by a patch clamp assay were evoked when TGW cells were exposed to 500 nM PL37-MAP (FIG. 2a). […]
# C5a = target: T1, C5a (Homo sapiens, UniProt P01031); test: Intracellular Ca++ mobilization in neutrophils triggered by C5a (calcium imaging); assay type: cell-based; conditions: 1 nM C5a, 350 nM peptide, human neutrophils (FIG. 5)
# T1 sequence (P01031 678-751 limits assumed): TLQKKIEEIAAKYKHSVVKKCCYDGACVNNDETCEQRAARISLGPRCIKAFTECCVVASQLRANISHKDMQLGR
# Protocol: Neutrophils were isolated from fresh human blood with 0.2% EDTA as an anticoagulant. Whole blood was collected from a healthy volunteer (a collaborator of this study) via vein puncture. A 2.4 ml aliquot of blood was then layered onto 2 ml Mono-Poly Resolving Medium (Dainihon Seiyaku, Tokyo, Japan) in a centrifuge tube and centrifuged at 400 g for 20 min at room temperature. The polymorphonuclear leukocytes (neutrophils) were then harvested and the cell fraction was washed with Hanks' balanced salt solution (HBSS).
# The isolated neutrophils were loaded with 2 μM Fura-2/AM (Molecular Probes, Eugene, Oreg.) mixed with 0.02% Pluronic F-127 (Molecular Probes) and 0.2% DMSO in HBSS for 40 min at 37° C. The suspension was agitated to prevent sedimentation. After loading, the cells were washed with HBSS twice and suspended in HBSS containing 0.3% BSA (HBSS/BSA). Approximately 1×10^6 cells in 900 μl HBSS/BSA were added to a poly-L-lysine-coated 35 mm Petri dish and allowed to attach to the bottom of the dish for 30 min. Changes in intracellular calcium concentrations in response to C5a or a mixture of peptides (C-peptides and C5a) were determined by monitoring the ratio of fluorescence light emission at 5I0 nm as a result of excitation at 340 and 380 nm at 37° C. using an ARGUS HiSCA calcium imaging system (Hamamatsu Photonics, Hamamatsu, Japan). The mixture of peptides and C5a was incubated in an Eppendorf tube on ice for 30 min in the HBSS solution and then applied to the cells after a 2 min baseline recording.
# The effect of C-peptides on C5a function was analyzed by measuring Ca^++ mobilization using an ARUGUS HiSCA calcium imaging system. Administration of 0.7 nM recombinant human C5a (RhC5a) induced a transient increase in the level of intracellular Ca^++ of human neutrophils (FIG. 3a). The level of this activation was about 50% of the maximum achieved with higher concentrations of C5a. A mixture of C-peptide and C5a was incubated in an Eppendorf tube on ice for 30 min in the HBSS solution and then applied to the cells. […]
# ICR mice = test: Lethal shock of mice induced by intravenous CAWS (Candida albicans water soluble extract); assay type: in vivo, mouse
# Protocol: (§1) Within one exemplary embodiment illustrating construction of useful C5a-modulatory peptide analogs and mimetics from a direct C5a complement peptide (or reference C5a-modulatory peptide sequence), an acetylated derivative of Pep-A (A-Pep-A) was constructed and tested for use within the methods and compositions of the invention. A-Pep-A is a peptide with the same sequence as that of Pep-A with acetylated alanine at the amino-terminal amino acid. Effect of A-Pep-A was tested on the lethal shock of mice induced by intravenous administration of CAWS (Candida albicans water soluble extract). […] ICR mice were injected with 4 mg/kg of A-Pep-A intraperitonally (i.p.) or intravenously (i.v.) 10 min before i.v. challenge with […] 100 μg CAWS. […] Effect of A-Pep-A was also evaluated on the skin reaction of rats. As an indicator dye of vascular exudation, rats were i.v. injected with 0.5 ml of Evans Blue (8 mg/ml in saline) 30 min before intradermal (i.d.) injection of 5 μg 512 (anti-Crry monoclonal antibody) together with Pep-A, A-Pep-A of saline control).
# skin reaction of rats = test: Skin reaction of rats: Evans Blue exudation after intradermal 5I2 (anti-Crry mAb); assay type: in vivo, rat
# Protocol: as §1, with “As an indicator dye of vascular exudation, rats were i.v. injected with 0.5 ml of Evans Blue (8 mg/ml in saline) 30 min before intradermal (i.d.) injection of 5 μg 512 (anti-Crry monoclonal antibody) together with Pep-A, A-Pep-A of saline control).” left out
substance,measurement,setting,value
"ASGAPAPGPAGPLRPMF [Pep-A, ASGAPAPGPAGPLRPMF]",Time in which peptide had been degraded in vivo,"[1]; rat, inferred from loss of effect at 30 min pre-dosing",≤ 30 min
same,Harmful / side effects of the peptide in rats,"[1]; rats injected with Pep-A (LPS sensitized, without anti-Crry mAb)",survived with no harmful effect; also recorded: without any noticeable deleterious side effects
"PL37-MAP: PL37 (C5a fragment aa 37-53, RAARISLGPRCIKAFTE, SEQ ID NO: 2) in multiple antigenic peptide form (also: multiple antigenic peptide form on lysine core) [reference compound]",Amplitude of induced inward current pulses,[2],500 pA
A-Pep-A: Peptide with the same sequence as Pep-A with acetylated alanine at the amino-terminal amino acid (Ac-ASGAPAPGPAGPLRPMF),Inhibition of C5a-triggered Ca++ mobilization,C5a,completely inhibited; also recorded: much stronger effect than Pep-A
same,Dead/total,"ICR mice; 4 mg/kg i.p., CAWS 100 μg/mouse",3/3
same,Dead/total,"ICR mice; 4 mg/kg i.p., CAWS 200 μg/mouse",3/3
same,Dead/total,"ICR mice; 4 mg/kg i.v., CAWS 100 μg/mouse",rescued half of mice
same,Dead/total,"ICR mice; 4 mg/kg i.v., CAWS 100 μg/mouse, listed as A-PepA",2/4
same,Dead/total,"ICR mice; 4 mg/kg i.v., CAWS 200 μg/mouse",3/3
same,Blue spots at 2 h,"skin reaction of rats; 5I2 2.5 μg + peptide 40 μg i.d., spots measured from reverse side of removed skin",3 +/− 1
same,Inhibition of dye exudation / skin inflammation,skin reaction of rats; summary of Table 3,suppressed the dye exudation
